According to US20220096421A1, “Active Ingredient, Pharmaceutical Composition, and Medicinal Product for HIV and AIDS Therapy” (priority 2019, published 2022):
Entries after “also recorded” stand apart in the source; their conditions may differ. Like-named read-outs stand apart in the source and are kept apart here.

How the values were obtained:
HIV-1 = test: Efficacy, safety and optimal dosage study in previously untreated HIV-1-infected patients versus Efavirenz; conditions: for development of HIV-1 resistance: patients, at the studied doses; for viral load decrease: week 12; for viral load decrease / viral load change: 20 mg MMSCs of formula Ib, 600 mg Efavirenz; for viral load change: week 24
Method: Doses of 20 mg/day (60 patients) and 40 mg/day (60 patients) of MMSCs of formula Ib were studied versus 600 mg/day of Efavirenz (30 patients).
Doses of 20.7 mg/day (60 patients) and 41.4 mg/day (60 patients) of MMSCs of formula Ib were studied in comparison with Efavirenz (600 mg/day, 30 patients).

[1] = Pharmacokinetics in healthy volunteers with repeated weekly administration; assay type: in vivo, human; conditions: for Cmax / concentration at 168 h: human, in vivo, oral; for Cmax: read-out: Cmax of active metabolite Ia in the first week; for concentration at 168 h: read-out: concentration of active metabolite Ia a week later (168 hours)
[2] = Clinical trial in healthy volunteers, pharmacokinetics with daily administration of capsules; conditions: constant administration, average
Method: The concentration-time pattern of metabolite Ia in the blood was evaluated by its content in the plasma and blood cells.

Row | Structure (SMILES) | development of HIV-1 resistance (HIV-1) | viral load decrease (HIV-1) | viral load change (HIV-1) | time to maximum concentration of active metabolite Ia in the first week ([1]; 41.4, 82.8 or 124.2 mg/week, after taking the drug) | Cmax ([1]; 41.4 mg/week) [ng/mL] | concentration at 168 h ([1]; 41.4 mg/week) [ng/mL] | Cmax ([1]; 82.8 mg/week) [ng/mL] | concentration at 168 h ([1]; 82.8 mg/week) [ng/mL] | Cmax ([1]; 124.2 mg/week) [ng/mL] | concentration at 168 h ([1]; 124.2 mg/week) [ng/mL] | time of dosing to maximum plasma concentration of active metabolite Ia ([2]; 10 mg/day) [days] | time of dosing to maximum plasma concentration of active metabolite Ia ([2]; 20 mg/day) [days] | time of dosing to maximum plasma concentration of active metabolite Ia ([2]; 30 mg/day) [days] | occurrence of a viral load reduction of 10 times and more (HIV-1; 20 mg versus Efavirenz 600 mg, p=0.053) | efficacy difference between the MMSCs of formula Ib therapy groups (HIV-1; 20 versus 40 mg/day groups, p=0.804) | serious adverse events (HIV-1; HIV-1-infected patients) | effectiveness in reducing the viral load to <400 copies/ml (HIV-1; doses of 20 and 40 mg, over a period of 12 weeks, versus Efavirenz 600 mg/day) | advantage of the 20 mg group over the Efavirenz 600 mg group (HIV-1; p=0.0237) | frequency of achieving an undetectable HIV-1 RNA level (HIV-1; week 36, versus Efavirenz, p=0.408)
1 | O=C1Nc2ccc(Cl)cc2[C@@](C#CC2CC2)(C(F)(F)F)O1 [Efavirenz, reference compound] | No development of HIV-1 resistance was established; also recorded: has not been established | −2.7±1.0 | −3.3±0.8 |  |  |  |  |  |  |  |  |  |  |  |  |  |  |  | 
2 | N#Cc1cc(Cl)cc(Oc2c(Br)ccc(CC(=O)Nc3ccc(S(N)(=O)=O)cc3Cl)c2F)c1 [Ia] |  |  |  | approximately 5.5 hours | 34.5 | 26.1 | 63.6 | 36.9 | 117 | 57.2 | 9.8 | 7.5 | 6.7 |  |  |  |  |  | 
3 | CCC(=O)[N-]S(=O)(=O)c1ccc(NC(=O)Cc2ccc(Br)c(Oc3cc(Cl)cc(C#N)c3)c2F)c(Cl)c1.[Na+] [MMSCs of formula Ib, sodium {[4-({[4-bromo-3-(3-chloro-5-cyanophenoxy)-2-fluorophenyl]acetyl}amino)-3-chlorophenyl]-sulfonyl}(propanoyl)azanide] | No development of HIV-1 resistance was established; also recorded: has not been established | −2.8±0.7 | −3.3±0.7 |  |  |  |  |  |  |  |  |  |  | tendency for a statistical difference | did not differ in effectiveness; also recorded: did not differ in efficacy | No serious adverse events were observed | not inferior to Efavirenz | statistically significant | did not statistically differ; also recorded: did not differ statistically
